System: P. aeruginosa PAO1
Assay: Invasion assay of P. aeruginosa PAO1 into H1299 cells
Assay type: cell-based, Pseudomonas aeruginosa
Procedure: P. aeruginosa is able to invade non‐phagocytic cells via a lipid zipper mechanism.[10] Binding of LecA to the glycosphingolipid Gb3 followed by LecA‐induced receptor clustering plays a crucial role in this process. The LecA ligand 4‐nitrophenyl α‐ D‐galactopyranoside (PNPG) has been previously shown to interfere with these events at a high concentration of 10 mM leading to a reduction of bacterial invasiveness to 30–60 % as compared to untreated bacteria (100 % invasiveness).[10, 31] For invasion assays, H1299 cells were incubated with P. aeruginosa in presence and absence of LecA inhibitors, followed by killing of extracellular bacteria with the antibiotic amikacin. Then, all intracellular bacteria were released by lysis of the human cells and viable bacteria were quantified by plating. To assess the impact of LecA inhibitors on the invasiveness, the influence of the divalent LecA inhibitor L2 on bacterial invasion into host cells was evaluated and compared to PNPG. […] In contrast, the divalent LecA ligand L2 achieved an invasion decrease to 44 % already at 100 μM (Figure 5c). L2 was thus able to reach a similar reduction of invasion at a 100‐fold lower concentration than the one needed for PNPG. […]
lectin-inhibitor solution for 24 h at 37 °C. In order to depict exactly the same position for each wound, marker lines were drawn on the bottom of the 12-well plates for each well. The samples were imaged with an EVOS microscope (PEQLAB by VWR Life Sciences, Avantor […]
Excel. […]
A chromosomally GFP-tagged Gentamicin-resistant Pseudomonas aeruginosa PAO1 strain was cultured (LB medium supplemented with 60 µg/mL Gentamicin, 37 °C, 180 rpm, 16 h) and invasion assays were performed in analogy to Eierhoff et al..[13] 1.5 x 10^4 H1299 cells per well were seeded one day prior to the invasion assay in a 96-well plate with flat bottom. An […]
overnight culture of P. aeruginosa was centrifuged for 5 min at 3000 x g, washed with PBS (- /-) and re-suspended in RPMI 1640 medium. The newly synthesized divalent LecA ligand L2 was compared to 4-nitrophenyl α-D-galactopyranoside (PNPG; Sigma-Aldrich, Chemie GmbH, Darmstadt, Germany). […]
Subsequently, cells were washed three times with DPBS and lysed by incubation with 0.25% (v/v) Triton X-100 (Carl Roth GmbH & Co. KG, Karlsruhe, Germany) for 5 min at 37 °C and 180 rpm. […] Bacterial colonies were counted the next day. […] The invasion rate was calculated as the number of intracellularly localized bacteria divided by the total number of non-treated bacteria, bacteria that were not treated with any ligands and neither amikacin, thus the number of P. aeruginosa that successfully invaded or stayed attached to the host cells. Experiments were repeated independently at least four times (N ≥ 4) and evaluated […]

Compound: O=C(CCc1ccc(O[C@@H]2O[C@H](CO)[C@H](O)[C@H](O)[C@H]2O)cc1)Nc1ccc(CCc2ccc(NC(=O)CCc3ccc(O[C@@H]4O[C@H](CO)[C@H](O)[C@H](O)[C@H]4O)cc3)cc2S(=O)(=O)O)c(S(=O)(=O)O)c1 [Compound L2]
- Lower concentration than PNPG for similar reduction of invasion (100 μM L2 vs 10 mM PNPG): 100 fold
- Bacterial invasiveness (untreated bacteria 100 %) (100 μM inhibitor, PAO1 into H1299 cells, N≥4): 44%
